Data on 23 compounds can be found in US20120115852A1, “HETEROCYCLIC COMPOUNDS AS AUTOTAXIN INHIBITORS” (Merck Patent Gesellschaft Mit Beschrankter Haftung, priority 2009, published 2012).

The target in this experiment is T1, recombinant autotaxin (Homo sapiens, UniProt Q13822).
T1 construct: made in house; host or cells: Hi5 insect cells (baculovirus)
The experiment is described as follows: Autotaxin test (enzyme test), Amplex Red fluorescence with LPC substrate. To be noted: autotaxin inhibition (enzyme test); for remaining activity at 10 µM: 10 μM compound, read-out: % Control at 10 μM. The format is biochemical. In short, it runs like this: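 Activity was inferred from H2O2 made from released choline, detected as Amplex Red/peroxidase fluorescence (485 nm excitation, 612 nm emission, kinetic read). Beforehand, Hi5-expressed autotaxin sat with compound 30 min at 22° C, then hydrolysed 75 μM final LPC for 90 min at 37° C, pH 8 Tris buffer.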

A word on the IC50: it is the midpoint of a concentration-inhibition curve. As to `CC(C)(C)CC(=O)N1CCN2C(=O)c3cc(-c4ccc(Cl)c(F)c4)ccc3NC(=O)C2C1` (stereo not drawn) [Compound A94, 7-(4-Chloro-3-fluorophenyl)-2-(3,3-dimethylbutyryl)-1,3,4,11a-tetrahydro-2H,10H-2,4a,10-triaza-dibenzo[a,d]cycloheptene-5,11-dione], the remaining activity at 10 µM was -18% and the IC50 is over 1000 nM.
The matching figures for `Cn1cc(CCC(=O)N2CCN3C(=O)c4cc(-c5ccc(Cl)cc5F)ccc4NC(=O)C3C2)cn1` (stereo not drawn) [Compound A95, 7-(4-Chloro-2-fluorophenyl)-2-[3-(1-methyl-1H-pyrazol-4-yl)propionyl]-1,3,4,11a-tetrahydro-2H,10H-2,4a,10-triazadibenzo[a,d]cycloheptene-5,11-dione]: 15% and over 1000 nM.
The corresponding values for `CC(C)(C)[C@H](O)C(=O)N1CCN2C(=O)c3cc(-c4ccc(Cl)cc4F)ccc3NC(=O)[C@H]2C1` [Compound A96, (R)-7-(4-Chloro-2-fluorophenyl)-2-((S)-2-hydroxy-3,3-dimethylbutyryl)-1,3,4,11a-tetrahydro-2H,10H-2,4a,10-triazadibenzo[a,d]cycloheptene-5,11-dione] are 1% and 100 to 1000 nM.
The matching figures for `Cn1cc(CCC(=O)N2CCN3C(=O)c4cc(-c5ccc(Cl)cc5F)ccc4NC(=O)[C@H]3C2)cn1` [Compound A97, (R)-7-(4-Chloro-2-fluorophenyl)-2-[3-(1-methyl-1H-pyrazol-4-yl)propionyl]-1,3,4,11a-tetrahydro-2H,10H-2,4a,10-triazadibenzo[a,d]cycloheptene-5,11-dione]: 19% and 100 to 1000 nM.
For `Cn1cc(CCC(=O)N2CCN3C(=O)c4cc(-c5ccc(Cl)cc5F)ccc4NC(=O)[C@@H]3C2)cn1` [Compound A98, (S)-7-(4-Chloro-2-fIuorophenyl)-2-[3-(1-methyl-1H-pyrazol-4-yl)propionyl]-1,3,4,11a-tetrahydro-2H,10H-2,4a,10-triazadibenzo[a,d]cycloheptene-5,11-dione], the remaining activity at 10 µM was found to be 90% and the IC50 is over 1000 nM.
The corresponding values for `O=C1Nc2ccc(-c3ccc(Cl)cc3F)cc2C(=O)N2CCN(C(=O)[C@@H]3CCCN3C3CCNCC3)CC12` (stereo partly drawn) [Compound A99, 7-(4-Chloro-2-fluorophenyl)-2-((S)-1-piperidin-4-yl-pyrrolidine-2-carbonyl)-1,3,4,11a-tetrahydro-2H,10H-2,4a,10-triazadibenzo[a,d]cycloheptene-5,11-dione] are 19% and over 1000 nM.
The matching figures for `CC(C)(C)CC(=O)N1CCN2C(=O)c3cc(-c4ccc(Cl)cc4F)ccc3NC(=O)[C@H]2C1` [Compound A100, (R)-7-(4-Chloro-2-fluorophenyl)-2-(3,3-dimethyl-butyryl)-1,3,4,11a-tetrahydro-2H,10H-2,4a,10-triazadibenzo[a,d]cycloheptene-5,11-dione]: 11% and over 1000 nM.
The corresponding values for `Cc1ccc(-c2ccc3c(c2)C(=O)N2CCN(C(=O)[C@@H]4CCCN4C4CCNCC4)C[C@@H]2C(=O)N3)c(F)c1F` [Compound A101, (R)-7-(2,3-Difluoro-4-methylphenyl)-2-((S)-1-piperidin-4-ylpyrrolidine-2-carbonyl)-1,3,4,11a-tetrahydro-2H,10H-2,4a,10-triaza-dibenzo[a,d]cycloheptene-5,11-dione] are 8% and 100 to 1000 nM.
Take `O=C1Nc2ccc(-c3ccc(Cl)c(F)c3)cc2C(=O)N2CCN(C(=O)[C@@H]3CCCN3C3CCNCC3)C[C@H]12` [Compound A102, (R)-7-(4-Chloro-3-fluorophenyl)-2-((S)-1-piperidin-4-ylpyrrolidine-2-carbonyl)-1,3,4,11a-tetrahydro-2H,10H-2,4a,10-triazadibenzo[a,d]cycloheptene-5,11-dione]: the remaining activity at 10 µM turned out to be 7% and the IC50 was in the range of 100 to 1000 nM.
The matching figures for `CC(C)(C)CC(=O)N1CCN2C(=O)c3cc(-c4ccccc4Cl)ccc3NC(=O)C2C1` (stereo not drawn) [Compound A103, 7-(2-Chlorophenyl)-2-(3,3-dimethylbutyryl)-1,3,4,11a-tetrahydro-2H,10H-2,4a,10-triaza-dibenzo[a,d]cycloheptene-5,11-dione]: -10% and over 1000 nM.
The corresponding values for `CC(C)(C)CC(=O)N1CCN2C(=O)c3cc(-c4ccc(Cl)c(Cl)c4)ccc3NC(=O)C2C1` (stereo not drawn) [Compound A104, 7-(3,4-Dichlorophenyl)-2-(3,3-dimethylbutyryl)-1,3,4,11a-tetrahydro-2H,10H-2,4a,10-triaza-dibenzo[a,d]cycloheptene-5,11-dione] are -13% and 100 to 1000 nM.
The matching figures for `Cc1ccc(-c2ccc3c(c2)C(=O)N2CCN(C(=O)CC(C)(C)C)CC2C(=O)N3)cc1` (stereo not drawn) [Compound A105, 2-(3,3-Dimethylbutyryl)-7-p-tolyl-1,3,4,11a-tetrahydro-2H,10H-2,4a,10-triaza-dibenzo[a,d]cycloheptene-5,11-dione]: 22% and over 1000 nM.
For `O=C1Nc2ccc(-c3ccc(Cl)cc3)cc2C(=O)N2CCN(C(=O)C3(c4ccccc4)CCCC3)CC12` (stereo not drawn) [Compound A106, 7-(4-Chlorophenyl)-2-(1-phenylcyclopentane-carbonyl)-1,3,4,11a-tetrahydro-2H,10H-2,4a,10-triazadibenzo[a,d]cycloheptene-5,11-dione], the remaining activity at 10 µM is -37% and the IC50 was 100 to 1000 nM.
With `CN1CCC(C)(C(=O)N2CCN3C(=O)c4cc(-c5ccc(Cl)cc5)ccc4NC(=O)C3C2)CC1` (stereo not drawn) [Compound A107, 7-(4-Chlorophenyl)-2-(1,4-dimethylpiperidine-4-carbonyl)-1,3,4,11a-tetrahydro-2H,10H-2,4a,10-triazadibenzo[a,d]cycloheptene-5,11-dione], the remaining activity at 10 µM was 51% and the IC50 was over 1000 nM.
For the compound `Cn1cc(-c2ccc3c(c2)C(=O)N2CCN(C(=O)CC(C)(C)C)CC2C(=O)N3)cn1` (stereo not drawn) [Compound A108, 2-(3,3-Dimethylbutyryl)-7-(1-methyl-1H-pyrazol-4-yl)-1,3,4,11a-tetrahydro-2H,10H-2,4a,10-triaza-dibenzo[a,d]cycloheptene-5,11-dione], the remaining activity at 10 µM was 90%.
On to `CC(C)(C)C(=O)N1CCN2C(=O)c3cc(-c4ccc(Cl)cc4)ccc3NC(=O)C2C1` (stereo not drawn) [Compound A109, 7-(4-Chlorophenyl)-2-(2,2-dimethylpropionyl)-1,3,4,11a-tetrahydro-2H,10H-2,4a,10-triaza-dibenzo[a,d]cycloheptene-5,11-dione], for which the remaining activity at 10 µM was -21% and the IC50 was over 1000 nM.
The matching figures for `O=C1Nc2ccc(-c3ccc(Cl)cc3)cc2C(=O)N2CCN(C(=O)C3CCCN3C(=O)c3ccncc3)CC12` (stereo not drawn) [Compound A110, 7-(4-Chlorophenyl)-2-[1-(pyridine-4-carbonyl)-pyrrolidine-2-carbonyl]-1,3,4,11a-tetrahydro-2H,10H-2,4a,10-triazadibenzo[a,d]cycloheptene-5,11-dione]: 51% and over 1000 nM.
The corresponding values for `O=C1Nc2ccc(-c3ccc(Cl)cc3)cc2C(=O)N2CCN(C(=O)C3CCCN3C(=O)Nc3ccc(Cl)cc3)CC12` (stereo not drawn) [Compound A111, N-(4-Chlorophenyl)-2-[7-(4-chlorophenyl)-5,11-dioxo-3,4,5,10,11,11a-hexahydro-1H-2,4a,10-triaza-dibenzo[a,d]cycloheptene-2-carbonyl]pyrrolidine-1-carboxamide] are 3% and over 1000 nM.
The corresponding values for `O=C1Nc2ccc(-c3ccc(Cl)cc3)cc2C(=O)N2CCN(C(=O)[C@H](O)C3CCCCC3)CC12` (stereo partly drawn) [Compound A112, 7-(4-Chlorophenyl)-2-((R)-2-cyclohexyl-2-hydroxy-acetyl)-1,3,4,11a-tetrahydro-2H,10H-2,4a,10-triazadibenzo[a,d]cycloheptene-5,11-dione] are 5% and over 1000 nM.
For `O=C1Nc2ccc(-c3ccc(Cl)cc3)cc2C(=O)N2CCN(C(=O)[C@@H](O)C3CCCCC3)CC12` (stereo partly drawn) [Compound A113, 7-(4-Chlorophenyl)-2-((S)-2-cyclohexyl-2-hydroxy-acetyl)-1,3,4,11a-tetrahydro-2H,10H-2,4a,10-triazadibenzo[a,d]cycloheptene-5,11-dione], the remaining activity at 10 µM was -6% and the IC50 is over 1000 nM.
The corresponding values for `O=C1Nc2ccc(-c3ccc(Cl)cc3)cc2C(=O)N2CCN(C(=O)[C@@H]3CCCN3)CC12` (stereo partly drawn) [Compound A114, 7-(4-Chlorophenyl)-2-((S)-pyrrolidine-2-carbonyl)-1,3,4,11a-tetrahydro-2H,10H-2,4a,10-triaza-dibenzo[a,d]cycloheptene-5,11-dione] are 28% and over 1000 nM.
Consider `CN(C)CCN1CCC[C@H]1C(=O)N1CCN2C(=O)c3cc(-c4ccc(Cl)cc4F)ccc3NC(=O)C2C1` (stereo partly drawn) [Compound A115, 7-(4-Chloro-2-fluorophenyl)-2-[(S)-1-(2-dimethyl-aminoethyl)pyrrolidine-2-carbonyl]-1,3,4,11a-tetrahydro-2H,10H-2,4a,10-triaza-dibenzo[a,d]cycloheptene-5,11-dione], for which the remaining activity at 10 µM was found to be 80% and the IC50 was over 1000 nM.
The corresponding values for `CC(=O)N1CCN2C(=O)c3cc(-c4ccc(Cl)cc4F)ccc3NC(=O)[C@H]2C1` [Compound A116, (R)-2-Acetyl-7-(4-chloro-2-fluorophenyl)-1,3,4,11a-tetrahydro-2H,10H-2,4a,10-triaza-dibenzo[a,d]cycloheptene-5,11-dione] are 71% and over 1000 nM.
